Laboratory results taken from patent US9388136B2, “Tert-butyl N-[2-{4-[6-amino-5-(2,4-difluorobenzoyl)-2-oxopyridin-1(2H)-yl]-3,5-difluorophenyl}ethyl]-L-alaninate or a salt, hydrate or solvate thereof” (Chroma Therapeutics Ltd., priority 2012, dated 2016).
pIC50: −log10 of the molar value. Read-outs that look alike come from different tables or passages of the source.

Experiments:
Plasma exposure in mice = type: in vivo; details: mouse, po 10 mg/kg, male CD1 mice
Method: The compounds were formulated in 8% DMSO, 92% 11.25% hydroxypropyl-β-cyclodextrin in water using the following procedure: the compounds were fully dissolved in 100% DMSO and then the hydroxypropyl-β-cyclodextrin solution added. The fine precipitate formed was re-dissolved by the addition of aqueous HCl and the pH adjusted to 4 with aqueous sodium hydroxide.
Each compound was administered orally at 10 mg/kg, in a total dose volume of 5 ml/kg, to male CD1 mice ([…]). Three mice were used for each time point. Blood samples were taken at the following time points: 5, 15, 30, 60, 120, 240 and 360 minutes, by terminal cardiac puncture, under halothane/isofluorane anaesthesia. Blood samples were collected into pre-chilled tubes containing NaF/EDTA and mixed. Samples were spun at 7-7.5×g for 2 minutes. The plasma was aspirated and frozen.
Plasma samples were prepared by precipitation of protein using three volumes of acetonitrile containing the internal standard. The supernatants were analysed by LCMS (Sciex API 3000, HP1100 binary pump, CTC PAL). The chromatography was based on an Acentis C8 (50×2.1 mm) column and a mobile phase of 5-95% acetonitrile in water/0.1% formic acid.
Exposure (AUC) was calculated from the plasma concentration versus time profile using PK Solutions 2.0 (Summit Research Services, Montrose, Colo.).

THP-1 cells = test: LPS-stimulation of THP-1 cells, TNF-α levels by ELISA; type: cell-based; details: Homo sapiens, THP-1; LPS 1 μg/ml, 6 hrs; read-out: C—ester TNF-alpha inhibition (THP-1 cells), IC50
Method: THP-1 cells were plated in 100 μl at a density of 4×10^4 cells/well in V-bottomed 96 well tissue culture treated plates and incubated at 37° C. in 5% CO2 for 16 hrs. 2 hrs after the addition of the inhibitor in 100 μl of tissue culture media, the cells were stimulated with LPS (E coli strain 005:B5, Sigma) at a final concentration of 1 μg/ml and incubated at 37° C. in 5% CO2 for 6 hrs. TNF-α levels were measured from cell-free supernatants by sandwich ELISA (R&D Systems #QTA00B).

human whole blood = test: LPS-stimulation of human whole blood, TNF-α levels by ELISA; type: cell-based; details: Homo sapiens; LPS 100 ng/ml, 6 hrs; read-out: D—ester TNF-alpha inhibition (human whole blood), IC50
Method: Whole blood was taken by venous puncture using heparinised vacutainers (Becton Dickinson) and diluted in an equal volume of RPMI1640 tissue culture media (Sigma). 100 μl was plated in V-bottomed 96 well tissue culture treated plates. 2 hrs after the addition of the inhibitor in 100 μl of RPMI1640 media, the blood was stimulated with LPS (E coli strain 005:B5, Sigma) at a final concentration of 100 ng/ml and incubated at 37° C. in 5% CO2 for 6 hrs. TNF-α levels were measured from cell-free supernatants by sandwich ELISA (R&D Systems #QTA00B).

p38 MAP Kinase a = p38 MAP Kinase a (Homo sapiens (Human), UniProt Q16539); test: p38 MAP kinase enzyme assay (radiometric filter-binding); type: biochemical
Method: The ability of compounds to inhibit p38 MAP a Kinase activity was measured in an assay performed by Upstate (Dundee UK). In a final reaction volume of 25 μL, p38 MAP Kinase a (5-10 mU) is incubated with 25 mM Tris pH 7.5, 0.002 mMEGTA, 0.33 mg/mL myelin basic protein, 10 mM MgAcetate and [g-33p-ATP] (specific activity approx. 500 cpm/pmol, concentration as required). The reaction is initiated by the addition of the MgATP mix. After incubation for 40 minutes at room temperature, the reaction is stopped by the addition of 5 μL of a 3% phosphoric acid solution. 10 μL of the reaction is then spotted onto a P30 filtermat and washed three times for 5 minutes in 75 mM phosphoric acid and once in methanol prior to drying and scintillation counting.
Duplicate data points are generated from a 1/3 log dilution series of a stock solution in DMSO. Nine dilutions steps are made from a top concentration of 10 μM, and a ‘no compound’ blank is included. The standard radiometric filter-binding assay is performed at an ATP concentration at, or close to, the Km. Data from scintillation counts are collected and subjected to free-fit analysis by Prism software.

[1] = corresponding acid (hydrolysis product of the named ester) tested, read-out: B—acid enzyme assay (p38 kinase A (invitrogen)), IC50
[2] = ester tested, read-out: A—ester enzyme assay (p38 kinase A (invitrogen)), IC50

p38 MAP Kinase a, sequence (Q16539 whole entry): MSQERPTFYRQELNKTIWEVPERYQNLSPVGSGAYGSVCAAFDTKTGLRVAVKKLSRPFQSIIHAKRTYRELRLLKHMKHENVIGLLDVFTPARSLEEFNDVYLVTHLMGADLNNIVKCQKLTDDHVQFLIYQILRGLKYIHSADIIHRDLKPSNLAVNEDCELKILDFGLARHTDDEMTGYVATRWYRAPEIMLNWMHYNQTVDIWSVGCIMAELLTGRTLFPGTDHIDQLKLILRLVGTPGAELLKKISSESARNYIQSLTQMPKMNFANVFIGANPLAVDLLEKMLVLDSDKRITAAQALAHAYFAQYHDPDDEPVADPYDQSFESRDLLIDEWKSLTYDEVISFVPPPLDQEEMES

| AUC(0-t) (Plasma exposure in mice) [ng·h/mL] | pIC50 (THP-1 cells) | pIC50 (human whole blood) | pIC50 (p38 MAP Kinase a; [1]) | pIC50 (p38 MAP Kinase a; [2]) | SMILES |
| --- | --- | --- | --- | --- | --- |
| 14 | 9.30 | 7.27 | 9.00 | 6.64 | CC(C)C[C@H](NCCc1cc(F)c(-n2c(N)c(C(=O)c3ccc(F)cc3F)ccc2=O)c(F)c1)C(=O)OC1CCCC1 [cyclopentyl N-(2-{4-[6-amino-5-(2,4-difluoro-benzoyl)-2-oxopyridin-1(2H)-yl]-3,5-difluoro-phenyl}ethyl)-L-leucinate] |
| 75 | 8.52 | 6.72 | 9.00 | 6.92 | CC(C)C[C@H](NCCc1cc(F)c(-n2c(N)c(C(=O)c3ccc(F)cc3F)ccc2=O)c(F)c1)C(=O)OC(C)(C)C [tert-butyl N-(2-{4-[6-amino-5-(2,4-difluoro-benzoyl)-2-oxopyridin-1(2H)-yl]-3,5-difluorophenyl}ethyl)-L-leucinate] |
| 102 | 8.80 | 7.59 | 9.00 | 7.92 | C[C@H](NCCc1cc(F)c(-n2c(N)c(C(=O)c3ccc(F)cc3F)ccc2=O)c(F)c1)C(=O)OC(C)(C)C [tert-Butyl N-(2-{4-[6-amino-5-(2,4-difluorobenzoyl)-2-oxopyridin-1(2H)-yl]-3,5-difluorophenyl}ethyl)-L-alaninate] |
|  | 8.24 | 5.89 | 9.00 | 7.24 | CC(C)(C)OC[C@H](NCCc1cc(F)c(-n2c(N)c(C(=O)c3ccc(F)cc3F)ccc2=O)c(F)c1)C(=O)OC1CCCC1 [Cyclopentyl N-(2-{4-[6-amino-5-(2,4-difluoro-benzoyl)-2-oxopyridin-1(2H)-yl]-3,5-difluorophenyl}ethyl)-O-tert-butyl-L-serinate] |
